Reference: DBAASP
Values after ≈ are worked out from the molar mass of the structure shown.

Assays:
Assay in all cases: ≥ marks a high value that may be exact or a test limit, other limits are often not marked, values filed in µg/mL are converted to µM
[1] = system: Staphylococcus aureus ATCC 6538
[2] = system: Campylobacter jejuni NCTC 11161
[3] = system: Campylobacter jejuni ATCC 33292
Escherichia coli = system: Escherichia coli
[4] = system: Klebsiella pneumoniae Q14-0095
[5] = system: Acinetobacter baumannii Q13-0717
Escherichia coli K-12 = system: Escherichia coli K-12
[6] = system: Salmonella typhimurium SL1344
[7] = system: Pseudomonas aeruginosa Q14-0890
[8] = system: Listeria monocytogenes NCTC 11994
[9] = system: Pseudomonas aeruginosa PAO1
[10] = system: Klebsiella pneumoniae NCTC 13442
[11] = system: Klebsiella pneumoniae ATCC 700603
Campylobacter jejuni = system: Campylobacter jejuni
[12] = system: Enterococcus faecalis JH-2-2
[13] = system: Staphylococcus aureus MRSA-15
[14] = system: Acinetobacter baumannii ATCC 19606
[15] = system: Staphylococcus aureus USA 300
[16] = system: Pseudomonas aeruginosa Q12-0535
[17] = system: Pseudomonas aeruginosa Q14-0208
[18] = system: Pseudomonas aeruginosa ATCC 27853
[19] = system: Campylobacter jejuni NCTC 11351
[20] = system: Staphylococcus aureus RN4220
[21] = system: Staphylococcus aureus ATCC 33591
[22] = system: Klebsiella pneumoniae Q14-0285
[23] = system: Staphylococcus aureus NCTC 12493
Klebsiella oxytoca = system: Klebsiella oxytoca
[24] = system: Candida albicans 08030401
[25] = system: Enterococcus faecium 1299
Nocardia asteroides = system: Nocardia asteroides
[26] = system: Escherichia coli ATCC 25922
[27] = system: Salmonella enterica subsp. enterica serovar Paratyphi A
[28] = system: Candida albicans 08030809
[29] = system: Staphylococcus aureus 08032706
[30] = system: Enterococcus faecalis 981
[31] = system: Staphylococcus aureus 08032712
[32] = system: Candida albicans 08030102
[33] = system: Candida glabrata 09050201
[34] = system: Staphylococcus aureus 08032810
Candida glabrata 08A802 = system: Candida glabrata 08A802
[35] = system: Pseudomonas aeruginosa 08031014
Bacillus cereus = system: Bacillus cereus
[36] = system: Staphylococcus epidermidis
[37] = system: Klebsiella pneumoniae 1400
[38] = system: Candida albicans 08022710
[39] = system: Staphylococcus aureus ATCC 25923
[40] = system: Stenotrophomonas maltophilia
Shigella sp. = system: Shigella sp.

CC[C@H](C)[C@H](NC(=O)[C@H](CCCCN)NC(=O)[C@H](CO)NC(=O)[C@H](Cc1c[nH]c2ccccc12)NC(=O)[C@H](CCCN=C(N)N)NC(=O)[C@H](CC(N)=O)NC(=O)[C@H](CCCN=C(N)N)NC(=O)[C@H](CCCN=C(N)N)NC(=O)[C@@H]1CCCN1C(=O)[C@@H](N)CC(C)C)C(=O)N[C@@H](Cc1c[nH]c2ccccc12)C(=O)N[C@@H](CCCCN)C(=O)N[C@@H](CCCCN)C(=O)N[C@H](C(=O)N[C@H](C(=O)N[C@H](C(=O)N[C@H](C(=O)N[C@@H](Cc1ccccc1)C(=O)N[C@@H](CO)C(=O)O)C(C)C)[C@@H](C)O)C(C)C)C(C)C [LPRRNRWSKIWKKVVTVFS]
MIC [1]: 13.3 µM (≈ 32 µg/mL) | MIC [2]: 1.67 µM (≈ 4 µg/mL) | MIC [3]: 1.67 µM (≈ 4 µg/mL) | MIC (Escherichia coli): 26.7 µM (≈ 64 µg/mL) | MIC [4]: 13.3 µM (≈ 32 µg/mL) | MIC [5]: 1.67 µM (≈ 4 µg/mL) | MIC (Escherichia coli K-12): 13.3 µM (≈ 32 µg/mL) | MIC [6]: 13.3 µM (≈ 32 µg/mL) | MIC [7]: 13.3 µM (≈ 32 µg/mL) | MIC [8]: 13.3 µM (≈ 32 µg/mL) | MIC [9]: 13.3 µM (≈ 32 µg/mL) | MIC [10]: 6.66 µM (≈ 16 µg/mL) | MIC [11]: 6.66 µM (≈ 16 µg/mL) | MIC (Campylobacter jejuni): 26.7 µM (≈ 64 µg/mL) | MIC [12]: 13.3 µM (≈ 32 µg/mL) | MIC [13]: 13.3 µM (≈ 32 µg/mL) | MIC [14]: 9.42 µM (≈ 22.6 µg/mL) | MIC [15]: 3.33 µM (≈ 8 µg/mL) | MIC [16]: 26.7 µM (≈ 64 µg/mL) | MIC [17]: 6.66 µM (≈ 16 µg/mL) | MIC [18]: 26.7 µM (≈ 64 µg/mL) | MIC [19]: 26.7 µM (≈ 64 µg/mL) | MIC [20]: 13.3 µM (≈ 32 µg/mL) | MIC [21]: 6.66 µM (≈ 16 µg/mL) | MIC [22]: 6.66 µM (≈ 16 µg/mL) | MIC [23]: 6.66 µM (≈ 16 µg/mL)

CC[C@H](C)[C@H](NC(=O)[C@H](CCCN=C(N)N)NC(=O)[C@H](Cc1c[nH]c2ccccc12)NC(=O)CNC(=O)[C@H](Cc1ccc(O)cc1)NC(=O)[C@H](CCCN=C(N)N)NC(=O)[C@H](CCCN=C(N)N)NC(=O)[C@H](C)NC(=O)[C@H](Cc1ccccc1)NC(=O)[C@H](CCCN=C(N)N)NC(=O)CNC(=O)[C@H](C)NC(=O)CNC(=O)[C@H](CCCN=C(N)N)NC(=O)[C@@H](NC(=O)[C@H](Cc1ccccc1)NC(=O)[C@H](CCCN=C(N)N)NC(=O)[C@H](CCCN=C(N)N)NC(=O)[C@H](Cc1c[nH]c2ccccc12)NC(=O)[C@H](CCCN=C(N)N)NC(=O)[C@H](CO)NC(=O)[C@H](CCCN=C(N)N)NC(=O)[C@@H](N)[C@@H](C)O)[C@@H](C)CC)C(=O)N[C@@H](C)C(=O)N[C@@H](CC(C)C)C(=O)NCC(=O)N[C@@H](CC(C)C)C(=O)N[C@H](C(=O)NCC(=O)O)C(C)C [TRSRWRRFIRGAGRFARRYGWRIALGLVG]
MIC (Klebsiella oxytoca): 5.37 µM (≈ 18.8 µg/mL) | MIC [24]: 2.69 µM (≈ 9.38 µg/mL) | MIC [25]: 5.37 µM (≈ 18.8 µg/mL) | MIC (Nocardia asteroides): 2.69 µM (≈ 9.38 µg/mL) | MIC [26]: 5.37 µM (≈ 18.8 µg/mL) | MIC [27]: 10.7 µM (≈ 37.5 µg/mL) | MIC [28]: 5.37 µM (≈ 18.8 µg/mL) | MIC [29]: 5.37 µM (≈ 18.8 µg/mL) | MIC (Escherichia coli): 5.37 µM (≈ 18.8 µg/mL) | MIC [30]: 10.7 µM (≈ 37.5 µg/mL) | MIC [31]: 5.37 µM (≈ 18.8 µg/mL) | MIC [32]: 5.37 µM (≈ 18.8 µg/mL) | MIC [33]: 5.37 µM (≈ 18.8 µg/mL) | MIC [34]: 5.37 µM (≈ 18.8 µg/mL) | MIC (Candida glabrata 08A802): 2.69 µM (≈ 9.38 µg/mL) | MIC [35]: 2.69 µM (≈ 9.38 µg/mL) | MIC (Bacillus cereus): 2.69 µM (≈ 9.38 µg/mL) | MIC [36]: 5.37 µM (≈ 18.8 µg/mL) | MIC [18]: 5.37 µM (≈ 18.8 µg/mL) | MIC [37]: 7.49 µM (≈ 26.2 µg/mL) | MIC [38]: 5.37 µM (≈ 18.8 µg/mL) | MIC [39]: 5.37 µM (≈ 18.8 µg/mL) | MIC [40]: 5.37 µM (≈ 18.8 µg/mL) | MIC (Shigella sp.): 1.34 µM (≈ 4.69 µg/mL)
